Results from patent publication US5994334A, “Androgen synthesis inhibitors” (priority 1997, dated 1999).
Read-outs that look alike come from different tables or passages of the source.

Columns and labels:
[1] = biological target: 17α-hydroxylase/C17,20-lyase; details: read-out: Ki (literature); cited from earlier work
[2] = test system: LNCaP human prostatic cancer cell line; assay: Androgen-dependent growth of LNCaP cells; details: for reversal of testosterone-stimulated LNCaP growth (in words): inhibitor 0.3-5 μM, 9 days; for stimulation of LNCaP cell proliferation (in words): hydroxyflutamide 0.3-1 μM
Experimental: The ability of various inhibitors to reverse the stimulatory effect of testosterone on the growth of the LNCaP human prostatic cancer cell line was tested by comparing cell number in wells treated for 9 days with either drug vehicle only (control), 0.1 nM testosterone only, or 0.1 nM testosterone with inhibitor at 0.3, 1, 2.5, or 5 μM.

[3] = test system: human prostatic tissue (BPH or prostate cancer); assay: Prostate tissue in histoculture, DNA synthesis ([3H]-thymidine uptake); details: for inhibition of testosterone-stimulated DNA synthesis (in words), 0.3 μM: inhibitor 0.3 μM; for reversal of testosterone-stimulated DNA synthesis (in words), 1 μM: inhibitor 1 μM, testosterone 1 μM, FIG. 1
Experimental: We recently developed a histoculture method to evaluate the growth inhibiting properties of the compounds on human prostatic tissue. […] The tissue samples were then incubated for 3 days in fresh medium/treatment containing 2 μCi/ml [^3 H]-thymidine. Tissue was then digested and DNA extracted. For each sample, [^3 H]-thymidine uptake was normalized to DNA content. […] This finding is consistent with the compound acting as an antiandrogen. None of the compounds produced an independent effect on DNA synthesis in the absence of added androgens.

[4] = biological target: T1, Human Prostatic 5α-Reductase (Homo sapiens, UniProt P31213); assay: Inhibition of human prostatic 5α-reductase (prostatic microsomes, [3H]testosterone); details: for inhibition at 0.01 µM: read-out: % Inhibition of 5α-reductase, [I] 10 nM; for inhibition at 0.1 µM: read-out: % Inhibition of 5α-reductase, [I] 100 nM
T1 sequence (P31213 1-254): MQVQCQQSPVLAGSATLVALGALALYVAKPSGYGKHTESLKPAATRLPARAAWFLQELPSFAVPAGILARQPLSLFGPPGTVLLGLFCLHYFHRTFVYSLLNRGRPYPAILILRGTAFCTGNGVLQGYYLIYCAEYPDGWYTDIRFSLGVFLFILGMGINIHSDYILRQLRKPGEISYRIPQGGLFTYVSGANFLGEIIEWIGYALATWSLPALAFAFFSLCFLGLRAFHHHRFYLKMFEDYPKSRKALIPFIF
Experimental: The 5α-reductase assay is performed by incubating human prostatic microsomes (approx. 0.6 mg protein in 0.5 ml phosphate buffer) with [7-^3 H]testosterone (10 mM. 6×10^5 dpm) with a NADPH generating system (NADP 0.65 mM; glucose-6-phosphate 7.1 mM; glucose-6-phosphate dehydrogenase 2.5 IU in 100 μl phosphate buffer) and candidate inhibitors at concentrations of 10 nM and 100 nM under oxygen for 30 min at 37° C. […] The steroids are extracted with ether and separated by chromatography on TLC (chloroform:ether 80:20). […] The steroids are scraped from the plate and radioactivity measured.

[5] = biological target: T2, Human Testicular C17,20-lyase (Homo sapiens, UniProt P05093); assay: Inhibition of human testicular C17,20-lyase (pregnenolone substrate, testicular microsomes); type: biochemical
T2 construct: incubating human testicular microsomes; from tissue; host or cells: human testis, microsomes
T2 sequence (P05093 1-508): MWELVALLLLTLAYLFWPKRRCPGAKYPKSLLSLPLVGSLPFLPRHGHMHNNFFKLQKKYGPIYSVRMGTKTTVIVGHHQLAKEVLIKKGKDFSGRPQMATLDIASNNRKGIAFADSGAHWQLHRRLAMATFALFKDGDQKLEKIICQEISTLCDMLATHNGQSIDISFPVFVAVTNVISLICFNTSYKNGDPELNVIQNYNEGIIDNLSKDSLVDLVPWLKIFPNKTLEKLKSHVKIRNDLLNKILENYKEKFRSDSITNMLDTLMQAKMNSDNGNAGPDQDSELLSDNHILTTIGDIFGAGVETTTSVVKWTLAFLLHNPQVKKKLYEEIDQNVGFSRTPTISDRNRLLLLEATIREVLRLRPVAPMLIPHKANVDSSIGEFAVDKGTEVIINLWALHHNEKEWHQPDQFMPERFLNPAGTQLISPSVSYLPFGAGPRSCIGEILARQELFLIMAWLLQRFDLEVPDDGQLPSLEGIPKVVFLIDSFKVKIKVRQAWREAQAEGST
Experimental: (§1) The conversion of radiolabeled pregnenolone to 17α-hydroxypregnenolone and DHEA by 17α-hydroxylase/C17,20 -lyase was measured by incubating human testicular microsomes with different concentration of test compounds. Reverse phase HPLC was used to separate and accurately quantify the amount of substrate and metabolites. The 17α-hydroxylase and C17,20 -lyase activities were calculated separately. The activity of 17α-hydroxylase was calculated from the conversion of pregnenolone to 17α-hydroxypregnenolone and DHEA and the activity of C17,20 -lyase was based on the conversion of pregnenolone to DHEA. Although 17α-hydroxypregnenolone is the substrate converted to DHEA by C17,20 -lyase, it has been reported that this 17α-hydroxy intermediate is not released from the enzyme binding site during conversion (Nakajin et al., 1981a,b). Also, there are species differences in substrate requirements. Pregnenolone is the natural substrate rather than progesterone for human testicular 17α-hydroxylase and C17,20 -lyase. Therefore, pregnenolone was used as substrate for measuring the activity of this enzyme complex.

[6] = biological target: T3, Human Testicular 17α-Hydroxylase (Homo sapiens, UniProt P05093); assay: Inhibition of human testicular 17α-hydroxylase (pregnenolone substrate, testicular microsomes); type: biochemical
T3 construct: incubating human testicular microsomes; from tissue; host or cells: human testis, microsomes
T3 sequence (P05093 1-508): T2 sequence (P05093 1-508)
Experimental: as §1

[7] = biological target: T4, human 17α-hydroxylase/C17,20-lyase (Homo sapiens, UniProt P05093); assay: Inhibition of human testicular 17α-hydroxylase/C17,20-lyase (enzyme complex as a whole); type: biochemical; details: for inhibition of 17α-hydroxylase/C17,20-lyase (in words): NI = no inhibition
T4 construct: incubating human testicular microsomes; from tissue; host or cells: human testis, microsomes
T4 sequence (P05093 1-508): T2 sequence (P05093 1-508)
Experimental: as §1

[8] = test system: LNCaP human prostatic tumors; assay: Human prostatic cancer (LNCaP) xenograft in male nude mice; type: in vivo, human (LNCaP) tumors in BALB/c male athymic mice; details: five weeks
Experimental: We have reported that inoculation of MCF-7 breast cancer cells in Matrigel increases mammary tumor formation in nude mice (Yue et al., 1994). The same procedure was therefore utilized to develop tumors from human prostatic cancer cells (LNCAP) in male nude mice. BALB/c male athymic mice, 4-6 weeks old, were inoculated sc with LNCaP cells suspended in Matrigel (10 mg/ml). Four sites per mouse were injected with 1.8×10^6 cells in 0.1 ml Matrigel. Treatment began when the tumor reached about 100 mm^3 in volume. Tumors were measured before the treatment began and once a week during treatment. Tumor volume was calculated by the formula 4/3πr1^2 r2 (r1 <r2).At the end of treatment, the mice were sacrificed and individual tumors were weighed. The latency of tumor development was 30-40 days and overall tumorigenicity was 82%.
In a further experiment, two mice were treated with I-16 (1 mg/mouse/day, s.c.) beginning 45 days after cell inoculation. Two mice received vehicle as controls. […] The mean tumor weight was 198.78±72 mg in I-16 treated mice compared to 386.3±147.2 mg in the control group. In other experiments, I-47 and I-49 were effective in controlling tumor growth. The total tumor volume of the control mice increased to 884.0% of the initial volume.

[9] = test system: adrenal 17α-hydroxylase/C17,20-lyase; assay: Inhibition of adrenal 17α-hydroxylase/C17,20-lyase; type: biochemical; details: guinea pig adrenal
[10] = Table 1, NI = no inhibition, CI = complete inhibition, read-out: IC50 C17,20 lyase
[11] = second figure of pair, read-out: IC50 C17,20-lyase
[12] = Table 1, NI = no inhibition, read-out: IC50 17α-OHase
[13] = Table 3, first figure of 17α-hydroxylase/lyase pair, read-out: IC50 17α-hydroxylase
[14] = first figure of pair, read-out: IC50 17α-hydroxylase

Row | Structure (SMILES) | reversal of DHT-stimulated LNCaP growth (in words) ([2]; 0.03 nM DHT) | inhibition of testosterone-stimulated DNA synthesis (in words), 0.3 μM [3] | reversal of testosterone-stimulated DNA synthesis (in words), 1 μM [3] | IC50 ([4]; IC50 5α-reductase, Table 2) | inhibition at 0.01 µM [4] | inhibition at 0.1 µM [4] | IC50 ([4]; IC50 5α-reductase) | inhibition of 17α-hydroxylase/C17,20-lyase (in words) [7] | IC50 [5, 10] | IC50 [6, 12] | further results
1 | C[C@]12CC[C@H]3[C@@H](CC=C4C[C@@H](O)CC[C@@]43C)[C@@H]1CC[C@@H]2NC1CC1 [17β-(cyclopropylamino)androst-5ene-3-ol] | – | – | – | – | – | – | – | – | – | – | Ki [1]: 0.09 µM
2 | CCN(CC)C(=O)[C@H]1CC[C@H]2[C@@H]3CC[C@H]4N(C)C(=O)CC[C@]4(C)[C@H]3CC[C@]12C [Compound 4MA, reference compound] | dose-dependent reversal | highly effective | almost complete reversal | 0.01 µM | 71.9% | 92% | – | – | – | – | reversal of testosterone-stimulated LNCaP growth at 5 μM (in words) ([2]; 0.1 nM testosterone, inhibitor 5 μM): almost completely reversed; reversal of testosterone-stimulated LNCaP growth (in words) ([2]; 0.1 nM testosterone): dose-dependent reversal; IC50 ([2]; Homo sapiens, LNCaP, 216 h, read-out: concentration reducing the stimulatory effect of testosterone by 50%): ≤ 1 µM
3 | C[C@H](O)[C@H]1CC[C@H]2[C@@H]3CCC4=CC(=O)CC[C@]4(C)[C@H]3CC[C@]12C [Compound I-33] | – | highly effective | almost complete reversal | 0.013 µM | 28.5% | 87.6% | 0.013 µM | – | – | – | stimulation of LNCaP cell proliferation (in words) ([2]; 0.1 nM testosterone): stimulated cell proliferation; IC50 ([5]; IC50 C17,20 lyase): 1.43 µM; IC50 ([6]; IC50 17α-OHase): 2.84 µM
4 | C[C@@H](O)[C@H]1CC[C@H]2[C@@H]3CCC4=CC(=O)CC[C@]4(C)[C@H]3CC[C@]12C [Compound I-34] | stimulation of growth above the level produced by DHT | partially effective | almost complete reversal | 0.09 µM | 16.1% | 64.5% | 0.09 µM | potent inhibition | – | – | stimulation of LNCaP cell proliferation (in words) ([2]; 0.1 nM testosterone): stimulated cell proliferation
5 | C[C@]12CC[C@H]3[C@@H](CCC4=CC(=O)CC[C@@]43C)[C@@H]1CC[C@@H]2c1c[nH]cn1 [Compound I-41, 17β-(4'-imidazolyl)-androst-4-en-3-one] | – | – | without effect | – | – | – | 0.122 µM | – | 0.005 µM | 0.059 µM | IC50 ([5]; Table 3, second figure of pair, CI = complete inhibition, read-out: IC50 lyase): 0.00561 µM; IC50 [5, 11]: 0.005 µM; IC50 [6, 13]: 0.0594 µM; IC50 [6, 14]: 0.059 µM; IC50 ([4]; IC50 5α-reductase, Table 3, NI = no inhibition): 0.122 µM
6 | CC(=NO)[C@H]1CC[C@H]2[C@@H]3CCC4=CC(=NO)CC[C@]4(C)[C@H]3CC[C@]12C [Compound I-43] | – | – | without effect | – | – | – | – | decreased activity | 0.07 µM | 0.09 µM | inhibition of 5α-reductase (in words) ([4]; NI = no inhibition): decreased activity; IC50 ([4]; read-out: IC50 5α-reductase, Table 2): 1.27 µM
7 | C[C@]12CC[C@H](O)CC1=CC[C@@H]1[C@@H]2CC[C@]2(C)C(c3c[nH]cn3)=CC[C@@H]12 [Compound I-49, 17β-(4'-imidazolyl)-androsta-5,16-dien-3β-ol] | dose-dependent reversal | – | partially effective | – | – | 26.3% | – | potent inhibitors | 0.009 µM | 0.008 µM | reversal of DHT-stimulated LNCaP growth at 5 μM (in words) ([2]; 0.03 nM DHT, inhibitor 5 μM): nearly complete reversal; reversal of testosterone-stimulated LNCaP growth (in words) ([2]; 0.1 nM testosterone): dose-dependent reversal; IC50 [5, 11]: 0.004 µM; IC50 [6, 13]: 0.00882 µM; IC50 [6, 14]: 0.004 µM; total tumor volume (% of initial volume), 5 weeks ([8]; 4 mice per group, control 884.0%, FIG. 2): 315.3%; mean tumor weight, 5-week experiment ([8]; control 1310.5±1125.9 mg, I-49 p<0.05 vs control): 255.9 ± 176.9 mg; fold increase of inhibition by 16,17 double bond ([7]; vs I-47): 2 fold; times more potent than ketoconazole ([7]; vs ketoconazole): 10-50 times; effect on adrenal enzyme (in words) [9]: very little effect
8 | C[C@]12CC[C@H]3[C@@H](CCC4=CC(=O)CC[C@@]43C)[C@@H]1CC[C@@H]2O [Testosterone, reference compound] | – | – | – | – | – | – | – | – | – | – | fold induction at 0.0001 µM ([2]; Homo sapiens, LNCaP, 216 h, read-out: stimulation of LNCaP growth by testosterone): 2; fold induction at 1 µM ([3]; Homo sapiens, read-out: stimulation of DNA synthesis by testosterone): ~2
